Test results as given in paper PMC10951340, “Two DOT1 enzymes cooperatively mediate efficient ubiquitin-independent histone H3 lysine 76 tri-methylation in kinetoplastids” (Nature Communications, 2024).

Experiments:
Δ42-DOT1A [1] = biological target: T1, Δ42-DOT1A (Trypanosoma brucei, UniProt Q581Z0); assay: X-ray crystal structure of the complex ([…] and […] Å); type: binding; design: residues 43-295, E. coli, His6-tag cut with PreScission; settings: active site; co-crystallised with twofold molar excess
Δ42-DOT1A [2] = biological target: T1, Δ42-DOT1A; settings: pH 8.5, on ice, 254 nm 1 h; covalent photo-cross-link; labelled compound
Δ27-DOT1B = Δ27-DOT1B (Trypanosoma brucei, UniProt Q4GZF2); settings: co-substrate T. brucei nucleosome, pH 8.5, 25 °C; labelled compound
full-length DOT1A = biological target: T2, full-length DOT1A (Trypanosoma brucei, UniProt Q581Z0); assay: 3H-methyl incorporation into nucleosome; quantitative MS of H3K76; type: biochemical; settings: co-substrate T. brucei nucleosome, pH 8.5, 25 °C; labelled compound
T2 construct: full length (295 residues), Sf9 cells, His6-tag cut with PreScission
T2 sequence (Q581Z0 1-295): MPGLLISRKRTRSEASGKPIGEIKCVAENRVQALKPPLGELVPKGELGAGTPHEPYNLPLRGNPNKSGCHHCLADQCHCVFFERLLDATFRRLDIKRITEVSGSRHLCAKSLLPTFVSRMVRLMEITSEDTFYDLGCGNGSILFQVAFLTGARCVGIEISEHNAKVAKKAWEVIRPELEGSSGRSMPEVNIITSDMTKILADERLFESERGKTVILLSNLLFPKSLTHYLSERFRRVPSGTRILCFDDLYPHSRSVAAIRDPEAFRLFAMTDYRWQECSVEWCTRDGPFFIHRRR

DOT1L (1-420) = DOT1L (1-420) (human, UniProt Q8TEK3 1-420); assay: fluorescence polarization; n = 2; FP: 5 nM probe, 100 mM NaCl, 20 mM Tris-HCl pH 7.5, 5% glycerol, 0.5 mM TCEP, 25 °C, 10 min; footprinting at ambient temperature; settings: protein: recombinant; tags: His6 cleaved (PreScission); label: 5'-FAM on strand 1; 5' overhang 2 nt (CC) on strand 2
Δ42-DOT1A [3] = biological target: T3, Δ42-DOT1A (Trypanosoma brucei strain Lister 427, UniProt Q581Z0 43-295); assay: fluorescence polarization; not detectable; n = 1; FP: 5 nM probe, 100 mM NaCl, 20 mM Tris-HCl pH 7.5, 5% glycerol, 0.5 mM TCEP, 25 °C, 10 min; footprinting at ambient temperature; settings: protein: recombinant; tags: His6 cleaved (PreScission); label: 5'-FAM on strand 1; 5' overhang 2 nt (CC) on strand 2
T3 sequence: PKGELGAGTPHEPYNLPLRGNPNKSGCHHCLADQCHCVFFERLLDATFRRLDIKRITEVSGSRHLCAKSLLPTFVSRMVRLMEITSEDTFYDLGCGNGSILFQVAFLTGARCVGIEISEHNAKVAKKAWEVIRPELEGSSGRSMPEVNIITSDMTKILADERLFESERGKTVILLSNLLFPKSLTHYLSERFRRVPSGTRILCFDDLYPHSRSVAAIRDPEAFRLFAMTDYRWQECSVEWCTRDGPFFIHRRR

DOT1A full-length = biological target: T4, DOT1A full-length (Trypanosoma brucei strain Lister 427, UniProt Q581Z0 1-295); assay: fluorescence polarization; n = 1; FP: 5 nM probe, 100 mM NaCl, 20 mM Tris-HCl pH 7.5, 5% glycerol, 0.5 mM TCEP, 25 °C, 10 min; footprinting at ambient temperature; settings: protein: recombinant; tags: His6 cleaved (PreScission); label: 5'-FAM on strand 1; 5' overhang 2 nt (CC) on strand 2
T4 sequence: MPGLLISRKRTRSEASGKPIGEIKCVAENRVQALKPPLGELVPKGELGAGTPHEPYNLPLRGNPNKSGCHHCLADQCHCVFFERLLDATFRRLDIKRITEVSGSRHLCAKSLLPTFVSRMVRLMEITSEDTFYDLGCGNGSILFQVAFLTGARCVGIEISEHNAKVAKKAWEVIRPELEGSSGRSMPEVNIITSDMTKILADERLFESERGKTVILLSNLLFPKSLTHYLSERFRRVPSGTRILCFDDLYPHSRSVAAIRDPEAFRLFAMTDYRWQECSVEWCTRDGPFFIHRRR

Chain of DOT1L (1-420) (Q8TEK3 1-420): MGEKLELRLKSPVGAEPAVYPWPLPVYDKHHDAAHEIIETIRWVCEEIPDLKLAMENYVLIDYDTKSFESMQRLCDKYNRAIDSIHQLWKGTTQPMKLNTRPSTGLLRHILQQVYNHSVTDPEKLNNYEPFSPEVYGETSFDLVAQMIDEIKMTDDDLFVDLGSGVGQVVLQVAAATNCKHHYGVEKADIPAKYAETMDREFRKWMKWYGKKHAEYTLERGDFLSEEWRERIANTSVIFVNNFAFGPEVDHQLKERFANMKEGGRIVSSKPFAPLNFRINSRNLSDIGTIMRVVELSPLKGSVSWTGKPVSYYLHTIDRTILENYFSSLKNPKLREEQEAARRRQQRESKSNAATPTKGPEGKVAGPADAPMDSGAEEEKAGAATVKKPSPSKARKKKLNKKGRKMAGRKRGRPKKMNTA
Chain of Δ27-DOT1B (Q4GZF2 entry or part of it, stated change not applied): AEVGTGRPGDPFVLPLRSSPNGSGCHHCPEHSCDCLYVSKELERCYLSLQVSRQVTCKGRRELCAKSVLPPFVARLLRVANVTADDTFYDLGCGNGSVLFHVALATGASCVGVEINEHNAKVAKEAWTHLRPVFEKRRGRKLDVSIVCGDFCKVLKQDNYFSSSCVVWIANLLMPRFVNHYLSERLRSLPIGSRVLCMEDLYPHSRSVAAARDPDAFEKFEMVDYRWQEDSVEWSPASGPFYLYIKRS

Molecule: Nc1ncnc2c1ncn2[C@@H]1O[C@H](CSCC[C@H](N)C(=O)O)[C@@H](O)[C@H]1O [AdoHcy]
- X-ray crystal structure of the complex (2.1 and 1.9 Å) (Δ42-DOT1A [1]): Δ42-DOT1A crystallized in complex with the methyl donor product AdoHcy in two different crystal forms

Molecule: C[S+](CC[C@H](N)C(=O)O)C[C@H]1O[C@@H](n2cnc3c(N)ncnc32)[C@H](O)[C@@H]1O (stereo partly shown) [AdoMet]
- UV cross-linking of [methyl-3H]AdoMet, SDS-PAGE fluorography (Δ42-DOT1A [2]): AdoMet binding analyzed by cross-linking experiments showing Coomassie stain (middle) and fluorography (bottom)
- 3H-methyl incorporation into nucleosome; quantitative MS of H3K76 (Δ27-DOT1B): Δ27-DOT1B showed significant methyltransferase activity by measuring tritium incorporation from [methyl-^3H] AdoMet in vitro
- 3H-methyl incorporation into nucleosome; quantitative MS of H3K76 (full-length DOT1A): Methyltransferase activity of full-length DOT1A, Δ42-DOT1A, and Δ27-DOT1B toward the recombinant T. brucei nucleosome

B1: FAM-dsDNA probe (dsDNA)
DNA 1: CTACAGTTCGTCAGGATTCC
DNA 2: CCGGAATCCTGACGAACTGTAG
- Kd (DOT1L (1-420)): 110 ± 20 nM
- binding result (Δ42-DOT1A [3]): no binding
- Kd (DOT1A full-length): 900 ± 200 nM
